Laboratory results taken from ChEMBL document CHEMBL4725289, “Structure-activity relationship studies for the development of inhibitors of murine adipose triglyceride lipase (ATGL)” (Bioorg Med Chem, 2020).

What was measured:
[1] = biological target: T1, Patatin-like phospholipase domain-containing protein 2 (Mus musculus, UniProt Q8BJ56); experiment: Inhibition of murine ATGL expressed in COS-7 cells; type: cell-based
T1 sequence (Q8BJ56 whole entry): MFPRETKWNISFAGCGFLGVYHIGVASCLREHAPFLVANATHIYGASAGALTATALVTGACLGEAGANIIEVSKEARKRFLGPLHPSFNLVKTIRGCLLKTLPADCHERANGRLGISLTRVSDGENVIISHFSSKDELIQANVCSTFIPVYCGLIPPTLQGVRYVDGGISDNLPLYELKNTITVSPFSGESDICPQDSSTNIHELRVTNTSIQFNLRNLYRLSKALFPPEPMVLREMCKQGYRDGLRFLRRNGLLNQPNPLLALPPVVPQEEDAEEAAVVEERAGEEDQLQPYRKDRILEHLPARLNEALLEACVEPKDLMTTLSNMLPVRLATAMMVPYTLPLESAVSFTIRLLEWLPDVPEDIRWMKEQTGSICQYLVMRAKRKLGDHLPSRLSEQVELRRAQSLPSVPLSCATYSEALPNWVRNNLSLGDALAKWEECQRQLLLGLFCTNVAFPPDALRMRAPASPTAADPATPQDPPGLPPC

[2] = biological target: T2, Patatin-like phospholipase domain-containing protein 2 (Mus musculus) (UniProt Q8BJ56); experiment: Inhibition of murine ATGL expressed in COS-7 cells at 200 uM relative to control; type: cell-based
T2 sequence (whole entry): T1 sequence (Q8BJ56 whole entry)

[3] = biological target: T1, Patatin-like phospholipase domain-containing protein 2; experiment: Inhibition of recombinant murine ATGL expressed in Escherichia coli XL-1 lysates; type: subcellular
[4] = biological target: T2, Patatin-like phospholipase domain-containing protein 2 (Mus musculus); experiment: Inhibition of recombinant murine ATGL expressed in Escherichia coli XL-1 lysates at 200 uM relative to control; type: subcellular

Structure (SMILES)	IC50 [1] [µM]	inhibition [2] [%]	IC50 [3] [µM]	inhibition [4] [%]
CCOC(=O)c1cccc(-c2ccc(O)cc2)c1	100	77		
CCOC(=O)c1cncc(-c2ccc(OCC)cc2)c1	130	70		
CCOc1ccc(-c2cccc(C(=O)OCCOCCOC)c2)cc1	> 200	43		
CN(C)c1ccc(-c2cccc(NC(=O)OCc3ccccc3)c2)cc1	> 200	50		
CCNS(=O)(=O)c1cccc(-c2ccc(OCC)cc2)c1	200	46		
CCOC(=O)c1ccc(-c2ccc(OCC)cc2)s1	70	81		
CCOc1ccc(-c2cccc(N)c2)cc1	100	65		
CCNC(=O)c1cccc(-c2ccc(OCC)cc2)c1	90	62		
CCOC(=O)c1cccc(-c2ccc(OCC)cc2)c1	50	87		
CCCCOC(=O)c1cccc(-c2ccc(OCC)cc2)c1	100	61		
CCOC(=O)c1cn(-c2ccc(OCC)cc2)nn1			> 200	43
CCOC(=O)c1cccc(-c2ccc(OCC)c([N+](=O)[O-])c2)c1	200	44		
CCOc1ccc(-c2cccc(C(=O)OCC(F)(F)F)c2)cc1	120	71		
CCOC(=O)c1cccc(-c2ccc3[nH]ccc3c2)c1	60	80		
CCOC(=O)c1cccc(-c2ccc(CN3CCCCC3)cc2)c1	75	68		
CC(C)OC(=O)Nc1cccc(-c2ccc(N(C)C)cc2)c1	82	69		
CCOC(=O)c1cccc(-c2ccc(CN3CCN(S(C)(=O)=O)CC3)cc2)c1	100	68	100	68
CCCCCCOC(=O)c1cccc(-c2ccc(OCC)cc2)c1	> 200	48		
CCOC(=O)c1cccc(-c2ccccc2)c1	200	52		
CCOC(=O)c1cccc(-c2ccc3c(c2)CCN3)c1	120	66		
CCOc1ccc(-c2cccc(S(=O)(=O)NC)c2)cc1	200	47		
CCOC(=O)c1cccc(-c2ccc(CN(C)C)cc2)c1	150	67		
CCOC(=O)c1cccc(-c2ccc(CN3CCN(C)CC3)o2)c1	120	67		

Structure (SMILES)	IC50 [1] [µM]	inhibition [2] [%]	IC50 [3] [µM]	inhibition [4] [%]
CCOC(=O)c1cccc(-c2ccc(C(C)N3CCN(C)CC3)cc2)c1 (stereo unspecified)	90	69	200	30
CCOC(=O)c1cccc(-c2ccc(C(=O)CN(C)C)cc2)c1	200	20	200	4
CCOC(=O)N(C)c1cccc(-c2ccc(N(C)C)cc2)c1	> 200	20		
CCOc1ccc(-c2cccc(C(=O)NC)c2)cc1	> 200	40		
CCOC(=O)c1cccc(-c2ccc(OC)cc2)c1	80	77		
CN(C)c1ccc(-c2cccc(N)c2)cc1	100	70		
CCOC(=O)c1cccc(-c2ccc3c(ccn3C)c2)c1	75	84		
CN(C)c1ccc(-c2cccc(NC(=O)C(C)(C)C)c2)cc1	> 200	25		
CCOc1ccc(-c2cccc(C(=O)O)c2)cc1	> 200	23		
CCOc1ccc(-c2cccc(C)c2)cc1	70	54		
CCOC(=O)c1cccc(-c2ccc(CN(C)C)o2)c1	190	53		
CN(C)c1ccc(-c2cccc(NC(=O)N3CCOCC3)c2)cc1	> 200	31		
CCOC(=O)c1cccc(-c2ccc(Br)cc2)c1			> 200	34
CCOC(=O)c1cccc(-c2ccc(C(C)N(C)C)cc2)c1 (stereo unspecified)	200	50	200	9
CCOc1ccc(-c2cccc(C(=O)Oc3ccc([N+](=O)[O-])cc3)c2)cc1	150	56		
CCOC(=O)c1cccc(-c2ccc(C(C)=O)cc2)c1	200	36	200	17
CCOC(=O)c1cccc(-c2ccc(OCC)nc2)c1	130	68		
CCOc1ccc(-c2cccc(C(=O)OCCOC)c2)cc1	70	89		
COC(=O)Nc1cccc(-c2ccc(N(C)C)cc2)c1	5	95		
CCOC(=O)c1cccc(-c2ccc([N+](=O)[O-])cc2)c1	95	63		
CCOc1ccc(-c2cccc(S(=O)(=O)N(C)C)c2)cc1	110	63		
CCOC(=O)c1cccc(-c2ccc(C)cc2)c1	140	63		
CCOC(=O)c1ccnc(-c2ccc(OCC)cc2)c1	80	87		

Structure (SMILES)	IC50 [1] [µM]	inhibition [2] [%]	IC50 [3] [µM]	inhibition [4] [%]
CCOC(=O)c1cc(-c2ccc(OCC)cc2)ccn1	105	72		
CCOC(=O)c1ccc(-c2ccc(OCC)cc2)o1	50	93		
CCOc1ccc(-c2cccc([N+](=O)[O-])c2)cc1	> 200	35		
CCOC(=O)c1cccc(-c2ccc(OCC)cc2)n1	60	79		
CCOC(=O)c1cccc(-c2ccc(CN3CCN(C)CC3)cc2)c1	> 200	26	> 200	32
CCOC(=O)Nc1cccc(-c2ccc(N(C)C)cc2)c1	3	93		
CCOc1ccc(-c2ccccc2)cc1	> 200	35		
CCOC(=O)c1cccc(-c2ccc(OCC)c(N)c2)c1	140	59		
CCOC(=O)c1cccc(-c2ccc(CN3CCN(S(C)(=O)=O)CC3)o2)c1	100	66		
CCOC(=O)c1cccc(-c2ccncc2)c1	> 200	40		
CCOC(=O)c1ccc(-c2ccc(OCC)cc2)[nH]1	> 200	44		
CCOC(=O)c1cccc(-c2cccs2)c1	90	55		
CN(C)C(=O)N(C)c1cccc(-c2ccc(N(C)C)cc2)c1	70	74		
CN(C)c1ccc(-c2cccc([N+](=O)[O-])c2)cc1	> 200	21		
CCOc1ccc(-c2cccc(NC(C)=O)c2)cc1	200	52		
CCOc1ccc(-c2cccc(C(=O)N3CCCC3)c2)cc1	160	53		
CCOC(=O)c1cccc(-c2ccc(CN3CCCC3)cc2)c1	> 200	33		
CCOC(=O)C1CCCC(c2ccc(OCC)cc2)N1 (stereo unspecified)	> 200	48		
CCOC(=O)c1cccc(-c2ccsc2)c1	75	67		
CC(C)COC(=O)Nc1cccc(-c2ccc(N(C)C)cc2)c1	22	90		
CN(C)c1ccc(-c2cccc(NC(=O)Oc3ccccc3)c2)cc1	73	75		
